Test system: U373 MG
Assay: Antimitotic activity against human glioma line U-373 cell by measuring the incorporation of [3H]thymidine in cultures of the cells
Assay type: functional, cell-based, U-373MG ATCC

Work on `CCCCCCCCO[C@H]1O[C@@H](COCC(CO)(CO)CO)[C@@H](O)[C@H](O)[C@@H]1NC(C)=O` yielded an IC50 of 43 µM.
